Series [1] deals with Human neutrophil elastase (Homo sapiens (Human), UniProt P08246). In words: Human Neutrophil Elastase Assay. The format is biochemical. Put shortly:
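Readout: AMC fluorescence (ex 380, em 460 nm) after 60 min room-temperature reaction with 250 nM MeOSuc-AAPV-AMC, following 15 min compound–enzyme preincubation. Buffer: Tris/NaCl pH 7.5, 0.01% BSA.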

The nature of series [2]: Assay for the Determination of Metabolic Stability with Human Liver Microsomes. The format is in vitro ADME. Particulars: pH 7.6; pooled human liver microsomes, 37° C., NADPH; read-out: t1/2 INVITRO. The method, then:
Assay for the Determination of Metabolic Stability with Human Liver Microsomes
The metabolic degradation of the test compound is assayed at 37° C. with pooled human liver microsomes. The final incubation volume of […] per time point contains TRIS buffer pH 7.6 (0.1 M), magnesium chloride (5 mM), microsomal protein (1 mg/ml) and the test compound at a final concentration of […]. Following a short preincubation period at 37° C., the reactions are initiated by addition of beta-nicotinamide adenine dinucleotide phosphate, reduced form (NADPH, 1 mM) and terminated by transfering an aliquot into acetonitrile after different time points. Additionally, the NADPH-independent degradation is monitored in incubations without NADPH, terminated at the last time point. The rol remaining test compound after NADPH independent incubation is reflected by the parameter c(control) (metabolic stability). The quenched incubations are pelleted by centrifugation (10′000 g, 5 min) An aliquot of the supernatant is assayed by LC-MS/MS for the amount of parent compound.
The half-life (t1/2 INVITRO) is determined by the slope of the semilogarithmic plot of the concentration-time profile. The intrinsic clearance (CL_[…]) is calculated by considering the amount of protein in the incubation: CL_[…][μl/min/mg protein]=(ln 2/(half-life [min]*protein content [mg/ml]))*1′000.
The half-life (t1/2 INVITRO) values of selected compounds in the metabolic stability assay described above are listed in Table 15.
On the technique in general: Microsomes from liver hold many membrane-bound enzymes, among them those of drug oxidation.

Series [3] is described as follows: Assay for Determination of Drug Transport Across Human CACO-2 Cells. The format is in vitro ADME. Particulars: human; for efflux ratio at 2 h, 10 nM: pH 7.2, Caco-2, PEBA/PEAB; for Papp A→B at 10 nM: Caco-2, apical-to-basal, read-out: PEAB; for Papp A→B at 10 nM / Papp B→A at 10 nM: pH 7.2, 37° C.; for Papp B→A at 10 nM: Caco-2, basal-to-apical, read-out: PEBA. The source says:
Assay for Determination of Drug Transport Across Human CACO-2 Cells
The assay provides information on the potential of a compound to pass the cell membrane, on the extent of oral absorption as well as on whether the compound is actively transported by uptake and/or efflux transporters. For the measurement of permeability across polarized, confluent human cancer colon carcinoma cells 2 (Caco-2) cell monolayers grown on permeable filter supports are used as the in vitro absorption model. Apparent permeability coefficients (PE) of the compounds across the Caco-2 monolayers are measured (pH 7.2, 37° C.) in apical-to-basal (AB) (absorptive) and basal-to-apical (BA) (secretory) transport direction. AB permeability (PEAB) represents drug absorption from the intestine into the blood and BA permeability (PEBA) drug secretion from the blood back into the intestine via both passive permeability as well as active transport mechanisms mediated by efflux and uptake transporters that are expressed on the Caco-2 cells. The compounds are assigned to permeability/absorption classes by comparison of the AB permeabilities with the AB permeabilities of reference compounds with known in vitro permeability and oral absorption in the human. Identical or similar permeabilities in both transport directions indicate passive permeation, vectorial permeability points to additional active transport mechanisms. […] Active transport is concentration-dependently saturable.
Caco-2 cells (1−2*10^5 cells/cm^2 area) are seeded on filter inserts (Costar transwell polycarbonate or PET filters, […] pore size) and cultured (DMEM) for 10 to 25 days. Compounds are dissolved in appropriate solvent (like DMSO, 1-20 mM stock solutions). Stock solutions are diluted with HTP-4 buffer (128.13 mM NaCl, 5.36 mM KCl, 1 mM MgSO4, 1.8 mM CaCl2, 4.17 mM NaHCO3, 1.19 mM Na2HPO4×7H2O, 0.41 mM NaH2PO4×H2O, 15 mM HEPES, 20 mM glucose, pH 7.2) to prepare the transport solutions (typically […] compound, final DMSO <=0.5%). The transport solution (TL) is applied to the apical or basolateral donor side for measuring A-B or B-A permeability (3 filter replicates), respectively. The receiver side contains HTP-4 buffer supplemented with 2% BSA. Samples are collected at the start and end of experiment from the donor and at various time intervals for up to 2 hours also from the receiver side for concentration measurement by LC-MS/MS or scintillation counting. Sampled receiver volumes are is replaced with fresh receiver solution.
The apparent permeability coefficients (PEAB and PEBA) and efflux ratios (PEBA/PEAB) of selected compounds in the Caco-2 drug transport assay described above are listed in Table 17.

A short description of series [4]: Assay for Determination of Aqueous Solubility. Particulars: McIlvaine buffer pH 6.8, 2.5% DMSO; for Aqueous solubility: 24 h. The format is physicochemical. The method, then:
Assay for Determination of Aqueous Solubility
The aqueous solubility of a compound is determined by comparing the amount dissolved in aqueous buffer (containing 2.5% DMSO) to the amount dissolved in an acetonitrile/water (1/1) solution. Starting from a 10 mM DMSO stock solution, aliquots are diluted with acetonitrile/water (1/1) and Mcllvaine buffer pH 6.8, respectively. After 24 h of shaking, the solutions or suspensions are filtered and analyzed by LC-UV. The amount dissolved in buffer is compared to the amount dissolved in the acetonitrile/water (1/1) solution. Solubility is measured from 0.001 to 0.125 mg/ml at a DMSO concentration of 2.5%. If more than 90% of the compound is dissolved in buffer, the value is marked with “>”.

[5] abbreviates: human neutrophil elastase, substrate MeOSuc-Ala-Ala-Pro-Val-AMC, pH 7.5, read-out: IC50.

We go through 5 compounds from patent USRE47493E1, “Substituted bicyclic dihydropyrimidinones and their use as inhibitors of neutrophil elastase activity” (Boehringer Ingelheim International GmbH, priority 2014, dated 2019).

SMILES strings stand for the structures. Converted amounts (≈) assume the structure as drawn. Where two headings read alike, the source gives them in different places.

Chain of Human neutrophil elastase (P08246 30-267): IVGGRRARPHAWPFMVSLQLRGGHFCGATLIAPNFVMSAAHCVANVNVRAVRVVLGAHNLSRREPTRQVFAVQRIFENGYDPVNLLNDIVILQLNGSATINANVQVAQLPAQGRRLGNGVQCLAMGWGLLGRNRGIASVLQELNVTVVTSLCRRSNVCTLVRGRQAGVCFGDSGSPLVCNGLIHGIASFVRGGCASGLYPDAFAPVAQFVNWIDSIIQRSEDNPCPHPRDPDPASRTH

Consider `CS(=O)(=O)c1cc(C#N)ccc1[C@H]1NC(=O)N(c2cccc(C(F)(F)F)c2)C2=C1C(=O)CCC2` (single isomer, unassigned) [Example 18A], for which the IC50 in series [1] (setting [5]) was determined as 4.8 nM. Also, in series [1] (read-out: IC50, inhibition of neutrophil elastase), the IC50 was 4.8 nM. Also, the half-life at 1 nM in series [2] was over 2.17 h. In addition, in series [3], the efflux ratio at 2 h, 10 nM came out at 4.2; the Papp A→B at 10 nM turned out to be 20.9 ×10⁻⁶ cm/s; the Papp B→A at 10 nM is 88.2 ×10⁻⁶ cm/s. For the same compound, the Aqueous solubility in series [4] came out at 78 µg/mL.

In the case of `CS(=O)(=O)c1cc(C#N)ccc1[C@H]1NC(=O)N(c2cccc(C(F)F)c2)C2=C1C(=O)CCC2` (single isomer, unassigned) [Example 19A], the half-maximal inhibitory concentration (IC50) in series [1] (setting [5]) turned out to be 7.3 nM. For the same compound, the half-life at 1 nM in series [2] was over 2.17 h. In series [3], the efflux ratio at 2 h, 10 nM stood at 6.7; the Papp A→B at 10 nM came out at 11.4 ×10⁻⁶ cm/s; the Papp B→A at 10 nM turned out to be 76.7 ×10⁻⁶ cm/s. Moreover, the Aqueous solubility in series [4] worked out at 92 µg/mL.

Take `CNC(=O)N1C(=O)N(c2cccc(C(F)(F)F)c2)C2=C(C(=O)CCC2)[C@H]1c1ccc(C#N)cc1S(C)(=O)=O` (single isomer, unassigned) [Example 47A]: the IC50 in series [1] (setting [5]) is under 1 nM. Further, the half-life at 1 nM in series [2] is over 2.17 h. For the same compound, in series [3], the efflux ratio at 2 h, 10 nM turned out to be 5.4; the Papp A→B at 10 nM came out at 9.86 ×10⁻⁶ cm/s; the Papp B→A at 10 nM worked out at 53.5 ×10⁻⁶ cm/s. The compound further yielded an Aqueous solubility in series [4] of 86 µg/mL.

Take `CCS(=O)(=O)c1cc(C#N)ccc1[C@H]1NC(=O)N(c2cccc(C(F)(F)F)c2)C2=C1C(=O)CCC2` (single isomer, unassigned) [Example 54A]: the half-maximal inhibitory concentration (IC50) in series [1] (setting [5]) is 3.2 nM. The half-life at 1 nM in series [2] is over 2.17 h. Besides, in series [3], the efflux ratio at 2 h, 10 nM came out at 2.4; the Papp A→B at 10 nM worked out at 26 ×10⁻⁶ cm/s; the Papp B→A at 10 nM turned out to be 61.7 ×10⁻⁶ cm/s. Also, the Aqueous solubility in series [4] was 59 µg/mL.

Regarding `CC(C)(O)CNC(=O)N1C(=O)N(c2cccc(C(F)(F)F)c2)C2=C(C(=O)CCC2)C1c1ccc(C#N)cc1` (stereo not shown) [Example 70.9], in series [1] (setting [5]), the IC50 was determined as 1.7 nM. The half-life at 1 nM in series [2] was over 2.17 h. In addition, in series [3], the efflux ratio at 2 h, 10 nM came out at 3.2; the Papp A→B at 10 nM was 30.3 ×10⁻⁶ cm/s; the Papp B→A at 10 nM was 96.1 ×10⁻⁶ cm/s. For the same compound, the concentration in solution in series [4] (McIlvaine buffer pH 6.8 with 2.5% DMSO, aqueous buffer, kinetic from dmso stock) (solubility at 24 h) was 12 µg/mL (≈ 22.8 µM).

One may read the IC50 as the concentration that gives 50% inhibition. As usually defined, the efflux ratio is a quotient of directional permeabilities that is used to spot active efflux. As a reminder, the Aqueous solubility is how much of the substance goes into solution per volume. Higher therefore signals a readily soluble substance. Usually solubility stands for the dissolved amount per volume that the medium holds.
